Biological target: T1, Trifunctional purine biosynthetic protein adenosine-3 (Homo sapiens, UniProt P22102)
T1 sequence (P22102 whole entry): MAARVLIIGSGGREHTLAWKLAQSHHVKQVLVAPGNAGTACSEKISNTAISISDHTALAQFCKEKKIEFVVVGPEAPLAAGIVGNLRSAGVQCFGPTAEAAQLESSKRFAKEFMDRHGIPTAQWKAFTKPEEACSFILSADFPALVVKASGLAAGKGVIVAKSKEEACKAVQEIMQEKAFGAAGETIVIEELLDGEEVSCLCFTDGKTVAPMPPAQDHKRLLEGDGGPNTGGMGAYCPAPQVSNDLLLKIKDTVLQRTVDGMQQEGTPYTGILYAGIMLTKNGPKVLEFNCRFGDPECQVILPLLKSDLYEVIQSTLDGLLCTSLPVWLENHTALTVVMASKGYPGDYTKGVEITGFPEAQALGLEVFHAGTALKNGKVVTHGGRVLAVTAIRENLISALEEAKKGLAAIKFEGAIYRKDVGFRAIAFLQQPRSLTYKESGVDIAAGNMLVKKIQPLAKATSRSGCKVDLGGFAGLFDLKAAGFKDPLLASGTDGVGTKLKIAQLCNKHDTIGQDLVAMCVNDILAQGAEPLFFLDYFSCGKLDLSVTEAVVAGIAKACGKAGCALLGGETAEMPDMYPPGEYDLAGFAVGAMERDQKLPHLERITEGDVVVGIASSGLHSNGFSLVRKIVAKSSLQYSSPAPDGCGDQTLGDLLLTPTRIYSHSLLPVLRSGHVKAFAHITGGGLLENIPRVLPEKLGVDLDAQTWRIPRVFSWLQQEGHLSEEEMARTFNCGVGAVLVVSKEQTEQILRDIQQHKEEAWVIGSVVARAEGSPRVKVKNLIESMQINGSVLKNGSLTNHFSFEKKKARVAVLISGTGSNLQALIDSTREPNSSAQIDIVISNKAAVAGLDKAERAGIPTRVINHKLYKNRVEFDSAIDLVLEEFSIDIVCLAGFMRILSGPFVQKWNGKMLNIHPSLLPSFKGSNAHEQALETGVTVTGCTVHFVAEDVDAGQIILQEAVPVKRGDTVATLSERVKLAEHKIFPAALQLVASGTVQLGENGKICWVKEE
Experiment: GAR Transformylase Inhibition Assay
Settings: pH 7.5
Procedure: To initiate the assay, 150 μL of 20 nM His-GARFTase or buffer was added, and the plate was shaken for 5 s. […] For each antifolate, triplicate assays were performed at 20 different drug concentrations.

SMILES | Ki [µM]
Nc1nc2[nH]c(CCCCCCCC(=O)N[C@@H](CCC(=O)O)C(=O)O)cc2c(=O)[nH]1 | 0.099
Nc1nc2[nH]c(CCCCc3ccc(C(=O)N[C@@H](CCC(=O)O)C(=O)O)s3)cc2c(=O)[nH]1 [(S)-2-({5-[4-(2-Amino-4-oxo-4,7-dihydro-3H-pyrrolo[2,3-d]-pyrimidin-6-yl)-butyl]-thiophene-2-carbonyl}-amino)-pentanedioicAcid] | 0.022
Nc1nc2[nH]c(CCCCc3ccc(C(=O)N[C@@H](CCC(=O)O)C(O)O)cc3)cc2c(=O)[nH]1 [AGF23] | 0.017
Nc1nc2sc(CCCCc3ccc(C(=O)N[C@@H](CCC(=O)O)C(O)O)cc3)cc2c(=O)[nH]1 [AGF50] | 1.07
Nc1nc2[nH]c(CCCCCCC(=O)N[C@H](CCC(=O)O)C(=O)O)cc2c(=O)[nH]1 [AGF145] | 0.067

Reference: BindingDB's records for doi:10.1021/acs.biochem.6b00412 (Duquesne University, 2016)
